Experimental data from patent publication US5543406A, “Inhibitors of 5-α-testosterone reductase” (priority 1994, dated 1996).

molecular target: T1, Steroid 5-α-Reductase (Homo sapiens, UniProt P31213); test: Steroid 5-α-reductase in vitro assay, human prostate microsomes (BPH patients); assay type: biochemical; settings: human prostatic microsomes; 100 nM [3H]-testosterone, 1 mM NADPH, 60 minutes at 37° C.
T1 construct: microsomes derived from prostate tissue of benign prostatic hypertrophy (BPH) patients; from tissue; host or cells: prostate tissue of BPH patients, microsomes
T1 sequence (P31213 1-254): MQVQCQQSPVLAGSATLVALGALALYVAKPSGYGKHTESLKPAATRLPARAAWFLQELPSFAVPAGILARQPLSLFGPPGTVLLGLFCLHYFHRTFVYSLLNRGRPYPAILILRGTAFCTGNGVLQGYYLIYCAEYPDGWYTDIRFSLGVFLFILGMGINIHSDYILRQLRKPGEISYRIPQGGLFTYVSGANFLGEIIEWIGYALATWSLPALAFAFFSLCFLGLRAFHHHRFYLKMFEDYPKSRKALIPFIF

`CCC1=C2NC[C@H]3[C@@H]4CC[C@H](C(=O)N(CC)CC)[C@@]4(C)CC[C@@H]3[C@@]2(C)CCC1=O` [Compound 12, 17β-N,N-Diethylcarbamoyl-6-azaandrost-4-ethyl-4-en-3-one] and `CCN(CC)C(=O)[C@H]1CC[C@H]2[C@@H]3CNC4=C(CN(C)C)C(=O)CC[C@]4(C)[C@H]3CC[C@]12C` [Compound 14, 17β-N,N-Diethylcarbamoyl-6-azaandrost-4-dimethylaminomethylene-4-en-3-one] fall in the same range of IC50: 100 to 1000 nM for the first, 100 to 1000 nM for the second.

First: CCN(CC)C(=O)[C@H]1CC[C@H]2[C@@H]3CNC4=C(C#N)C(=O)CC[C@]4(C)[C@H]3CC[C@]12C [Compound 13, 17β-N,N-Diethylcarbamoyl-6-azaandrost-4-cyano-4-en-3-one]
Second: CCN(CC)C(=O)[C@H]1CC[C@H]2[C@@H]3CN(C(C)C)C4=CC(=O)CC[C@]4(C)[C@H]3CC[C@]12C [Compound 39, 17β-N,N-Diethylcarbamoyl-6-isopropyl-6-azaandrost-4-en-3-one]
The IC50 of the first is higher: 100 to 1000 nM for the first, less than 10 nM for the second.

`CCN(CC)C(=O)[C@H]1CC[C@H]2[C@@H]3CN(CCCO)C4=CC(=O)CC[C@]4(C)[C@H]3CC[C@]12C` [Compound 15, 17β-N,N-Diethylcarbamoyl-6-(3-hydroxypropyl)-6-azaandrost-4-en-3-one] and `CCN(CC)C(=O)[C@H]1CC[C@H]2[C@@H]3CN(CCCC(=O)O)C4=CC(=O)CC[C@]4(C)[C@H]3CC[C@]12C` [Compound 47, 17β-N,N-Diethylcarbamoyl-6-(4-butanoic acid)-6-azaandrost-4-en-3-one] fall in the same range of IC50: 100 to 1000 nM for the first, 100 to 1000 nM for the second.

`CN1C[C@H]2[C@@H]3CC[C@H](C(=O)O)[C@@]3(C)CC[C@@H]2[C@@]2(C)CCC(=O)C=C12` [Compound 25, 17β-Carboxy-6-methyl-6-azaandrost-4-en-3-one] and `CCN(CC)C(=O)[C@H]1CC[C@H]2[C@@H]3CN(CC(=O)O)C4=CC(=O)CC[C@]4(C)[C@H]3CC[C@]12C` [Compound 44, 17β-N,N-Diethylcarbamoyl-6-(2-acetic acid)-6-azaandrost-4-en-3-one] fall in the same range of IC50: 100 to 1000 nM for the first, 100 to 1000 nM for the second.

Compared with `C[C@]12CC[C@H]3[C@@H](CNC4=CC(=O)C=C[C@@]43C)[C@@H]1CC[C@@H]2C(=O)NC12CC3CC(CC(C3)C1)C2` [Compound 30, 17β-N-1-Adamantylcarbamoyl-6-azaandrost-1,4-dien-3-one], `CN1C[C@H]2[C@@H]3CC[C@H](C(=O)NC(C)(C)C)[C@@]3(C)CC[C@@H]2[C@]2(C)C1=CC(=O)[C@@H]1C[C@@H]12` [Compound 34, 17β-N-t-Butylcarbamoyl-6-methyl-6-azaandrost-1α,2α-cyclopropyl-4-en-3-one] is higher in IC50: less than 10 nM for the first, 10 to 100 nM for the second.

`CCN(CC)C(=O)[C@H]1CC[C@H]2[C@@H]3CN(CC(C)C)C4=CC(=O)CC[C@]4(C)[C@H]3CC[C@]12C` [Compound 40, 17β-N,N-Diethylcarbamoyl-6-isobutyl-6-azaandrost-4-en-3-one] and `C=CCN1C[C@H]2[C@@H]3CC[C@H](C(=O)N(CC)CC)[C@@]3(C)CC[C@@H]2[C@@]2(C)CCC(=O)C=C12` [Compound 42, 17β-N,N-Diethylcarbamoyl-6-allyl-6-azaandrost-4-en-3-one] fall in the same range of IC50: 100 to 1000 nM for the first, 100 to 1000 nM for the second.

`CCN(CC)C(=O)[C@H]1CC[C@H]2[C@@H]3CN(CC4CC4)C4=CC(=O)CC[C@]4(C)[C@H]3CC[C@]12C` [Compound 41, 17β-N,N-Diethylcarbamoyl-6-methylenecyclopropyl-6-azaandrost-4-en-3-one] and `CCN(CC)C(=O)[C@H]1CC[C@H]2[C@@H]3CN(CCC(=O)O)C4=CC(=O)CC[C@]4(C)[C@H]3CC[C@]12C` [Compound 45, 17β-N,N-Diethylcarbamoyl-6-(3-propanoic acid)-6-azaandrost-4-en-3-one] fall in the same range of IC50: 100 to 1000 nM for the first, 100 to 1000 nM for the second.

`CCN(CC)C(=O)[C@H]1CC[C@H]2[C@@H]3CN(CCC(=O)OC)C4=CC(=O)CC[C@]4(C)[C@H]3CC[C@]12C` [Compound 46, 17β-N,N-Diethylcarbamoyl-6-(methyl-3-propanoate)-6-azaandrost-4-en-3-one] gave an IC50 of 100 to 1000 nM.
